Key:
[1] = tested on: Acinetobacter baumannii; assay: Antibacterial activity against Acinetobacter baumannii 1309 assessed as inhibition of bacterial growth incubated for 16 to 18 hrs by CLSI based two-fold serial dilution method; format: functional; details: time 16-18 hrs
[2] = Cytotoxicity against human L02 cells assessed as inhibition of cell growth incubated for 24 hrs by MTT assay; format: toxicity, cell-based
[3] = tested on: Pseudomonas aeruginosa; assay: Antibacterial activity against Pseudomonas aeruginosa 408 assessed as inhibition of bacterial growth incubated for 16 to 18 hrs by CLSI based two-fold serial dilution method; format: functional; details: time 16-18 hrs
[4] = tested on: Staphylococcus aureus; assay: Antibacterial activity against methicillin-resistant Staphylococcus aureus 330041 assessed as inhibition of bacterial growth incubated for 16 to 18 hrs by CLSI based two-fold serial dilution method; format: functional; details: time 16-18 hrs
[5] = tested on: Staphylococcus aureus; assay: Antibacterial activity against methicillin-resistant Staphylococcus aureus 3390 assessed as inhibition of bacterial growth incubated for 16 to 18 hrs by CLSI based two-fold serial dilution method; format: functional; details: time 16-18 hrs
[6] = tested on: Pseudomonas aeruginosa; assay: Antibacterial activity against Pseudomonas aeruginosa 535 assessed as inhibition of bacterial growth incubated for 16 to 18 hrs by CLSI based two-fold serial dilution method; format: functional; details: time 16-18 hrs
[7] = tested on: Staphylococcus aureus; assay: Antibacterial activity against methicillin-resistant Staphylococcus aureus 3392 assessed as inhibition of bacterial growth incubated for 16 to 18 hrs by CLSI based two-fold serial dilution method; format: functional; details: time 16-18 hrs
[8] = tested on: Staphylococcus aureus; assay: Antibacterial activity against methicillin-resistant Staphylococcus aureus USA300 assessed as inhibition of bacterial growth incubated for 16 to 18 hrs by CLSI based two-fold serial dilution method; format: functional; details: time 16-18 hrs
[9] = tested on: Acinetobacter baumannii; assay: Antibacterial activity against Acinetobacter baumannii 1310 assessed as inhibition of bacterial growth incubated for 16 to 18 hrs by CLSI based two-fold serial dilution method; format: functional; details: time 16-18 hrs

Compound | MIC [1] | IC50 at 24 h [2] | MIC [3] | MIC [4] | MIC [5] | MIC [6] | MIC [7] | MIC [8] | MIC [9]
Br.O=C(CCCCCCCCC[P+](c1ccccc1)(c1ccccc1)c1ccccc1)O[C@H](c1ccc([N+](=O)[O-])cc1)[C@H](CO)NC(=O)C(Cl)Cl | > 64 µg/mL | < 32 µg/mL | > 64 µg/mL | 1 µg/mL | 1 µg/mL | > 64 µg/mL | 2 µg/mL | 1 µg/mL | > 64 µg/mL
Br.COc1ccc([P+](CCCCCCCCCC(=O)OC[C@H](NC(=O)C(Cl)Cl)[C@H](O)c2ccc([N+](=O)[O-])cc2)(c2ccc(OC)cc2)c2ccc(OC)cc2)cc1 | > 64 µg/mL | 23.5 µg/mL | > 64 µg/mL | 1 µg/mL | 2 µg/mL | > 64 µg/mL | 2 µg/mL | 2 µg/mL | > 64 µg/mL
Br.O=C(CCC[P+](c1ccccc1)(c1ccccc1)c1ccccc1)OC[C@H](NC(=O)C(Cl)Cl)[C@H](O)c1ccc([N+](=O)[O-])cc1 | > 64 µg/mL | > 64 µg/mL | > 64 µg/mL | 32 µg/mL | 32 µg/mL | > 64 µg/mL | 32 µg/mL | 16 µg/mL | > 64 µg/mL
O=C(O)CCCCCCCCC[P+](c1ccc(Cl)cc1)(c1ccc(Cl)cc1)c1ccc(Cl)cc1.[Br-] | > 64 µg/mL | 30.8 µg/mL | > 64 µg/mL | > 64 µg/mL | > 64 µg/mL | > 64 µg/mL | > 64 µg/mL | > 64 µg/mL | > 64 µg/mL
COc1cccc([P+](CCCCCCCCCC(=O)O)(c2cccc(OC)c2)c2cccc(OC)c2)c1.[Br-] | 64 µg/mL | 15.4 µg/mL | 64 µg/mL | 32 µg/mL | 32 µg/mL | > 64 µg/mL | 16 µg/mL | 32 µg/mL | > 64 µg/mL
O=C(O)CCCCCCCCC[P+](c1ccc(C(F)(F)F)cc1)(c1ccc(C(F)(F)F)cc1)c1ccc(C(F)(F)F)cc1.[Br-] | > 64 µg/mL | > 64 µg/mL | > 64 µg/mL | > 64 µg/mL | > 64 µg/mL | > 64 µg/mL | > 64 µg/mL | > 64 µg/mL | > 64 µg/mL
Br.O=C(CCCCC[P+](c1ccccc1)(c1ccccc1)c1ccccc1)OC[C@H](NC(=O)C(Cl)Cl)[C@H](O)c1ccc([N+](=O)[O-])cc1 | > 64 µg/mL | > 64 µg/mL | > 64 µg/mL | 16 µg/mL | 16 µg/mL | > 64 µg/mL | 8 µg/mL | 8 µg/mL | > 64 µg/mL
O=C(O)CCCCC[P+](c1ccccc1)(c1ccccc1)c1ccccc1.[Br-] | > 64 µg/mL | > 64 µg/mL | > 64 µg/mL | > 64 µg/mL | > 64 µg/mL | > 64 µg/mL | > 64 µg/mL | > 64 µg/mL | > 64 µg/mL
Br.O=C(COCCOCCOCC[P+](c1ccc(F)cc1)(c1ccc(F)cc1)c1ccc(F)cc1)OC[C@@H](NC(=O)C(Cl)Cl)[C@@H](O)c1ccc([N+](=O)[O-])cc1 | > 64 µg/mL | > 64 µg/mL | > 64 µg/mL | 8 µg/mL | 8 µg/mL | > 64 µg/mL | 8 µg/mL | 8 µg/mL | > 64 µg/mL

— ChEMBL document CHEMBL5537147, “Development of membrane-targeting TPP+-chloramphenicol conjugates to combat methicillin-resistant staphylococcus aureus (MRSA) infections” (Eur J Med Chem, 2024)
